The record followed here is patent US8940313B2, “Tyrosine-based prodrugs of antiviral agents” (priority 2010, dated 2015).

Read-outs that look alike come from different tables or passages of the source.

Data set [1] can be described thus: Enzymatic stability: hydrolysis in rat intestinal homogenate, pH 6.5, 37° C., LC-MS. The conditions noted are these: per diastereoisomer, st = stable.
The nature of data set [2]: Chemical stability: hydrolysis in 200 mM phosphate buffer, 37° C., LC-MS. To be noted: per diastereoisomer, st = stable.
Data set [3] relates to human cytomegalovirus (HCMV). The data set is described as follows: microbe, parasite or virus in culture. The data set is classed as cell-based.
The subject of another data set is vaccinia virus. The experiment in a line: microbe, parasite or virus in culture. Type of data set: cell-based. To be noted: read-out: IC50 Vaccinia.
In the next data set the test system is herpes simplex 1 (HSV-1). The experiment in a line: microbe, parasite or virus in culture. The data set is classed as cell-based.
The next data set has as its system cowpox virus. The data set is described as follows: microbe, parasite or virus in culture. Type of data set: cell-based. To be noted: read-out: IC50 Cow Pox.
The next data set relates to KB cells. The data set is described as follows: cells. To be noted: read-out: IC50 KB. Type of data set: cell-based.
The nature of data set [4]: Oral bioavailability / transport study in mice, plasma LC-MS. The conditions noted are these: oral AUC / intravenous AUC, dose-adjusted, total HPMPA-containing species in plasma.
Another data set has as its system HFF cells. The data set is described as follows: cells. Type of data set: cell-based, human. To be noted: Homo sapiens, HFF, read-out: IC50 HFF.
Data set [5] relates to poxviruses (vaccinia and cowpox viruses). The data set is classed as cell-based.
Setting [6] is: pH 7.4, T1/2 Buffer pH 7.4, 200 mM phosphate buffer pH 7.4, 37° C.

As for `COC(=O)[C@H](Cc1ccc(OP2(=O)CO[C@@H](Cn3cnc4c(N)ncnc43)CO2)cc1)NC(=O)[C@@H](N)C(C)C` (single isomer, unassigned) [1f (S,S)], the “T1/2 Int. Hom.” value in [1] was <28 min. Also, the half-life in [2] (pH 6.5, T1/2 Buffer pH 6.5, 200 mM phosphate buffer pH 6.5, 37° C.) came to 67 min.

Regarding `COC(=O)[C@@H](N)Cc1ccc(OP2(=O)CO[C@@H](Cn3ccc(N)nc3=O)CO2)cc1` (single isomer, unassigned) [2a (S,S)], the “T1/2 Int. Hom.” value in [1] is reported as <30 min. In data set [2] (setting [6]), this compound returned a half-life of 19 min.

For `COC(=O)[C@H](N)Cc1ccc(OP2(=O)CO[C@@H](Cn3ccc(N)nc3=O)CO2)cc1` (single isomer, unassigned) [2b (S,S)], in data set [1], the “T1/2 Int. Hom.” value worked out at 72 min. The same compound displayed a half-life in data set [2] (setting [6]) of 21 min.

On to `Nc1ncnc2c1ncn2C[C@@H](CO)OCP(=O)(O)O` [Compound 1, (S)-9-(3hydroxy-2-phosphonyl-methoxypropyl)adenine, reference compound], for which the IC50 was 410 nM in data set [3] (read-out: IC50 HCMV); 2000 nM in the data set on vaccinia virus; 35000 nM in the data set with herpes simplex 1 (HSV-1) (read-out: IC50 HSV-1); 4000 nM in the data set with cowpox virus; > 100000 nM in the data set on KB cells. Besides, the total oral bioavailability in data set [4] is listed as 5%.

In the case of `CC(C)CNC(=O)[C@@H](N)Cc1ccc(OP(=O)(O)CO[C@H](CO)Cn2cnc3c(N)ncnc32)cc1` [Compound 8, 4-[(2S)-2-amino-2-[(2-methylpropyl)carbamoyl]ethyl]phenoxy({[(2S)-1-(6-amino-9H-purin-9-yl)-3-hydroxypropan-2-yl]oxy}methyl)phosphinic acid], the IC50 was 290 nM in data set [3] (Human betaherpesvirus 5, read-out: IC50 HCMV); > 100000 nM in the data set on HFF cells; 500 nM with vaccinia virus (Orthopoxvirus vaccinia, HFF); 45000 nM in the data set on herpes simplex 1 (HSV-1) (Human alphaherpesvirus 1, read-out: IC50 HSV-1); 3000 nM in the data set on cowpox virus (Cowpox virus, HFF); > 100000 nM with KB cells (Homo sapiens, KB, 48 h). Also, the “activity against all these viruses” value in data set [5] is “active”. The “T1/2 Int. Hom.” value in data set [1] is recorded as “st”.
